Laboratory results published in ChEMBL document CHEMBL4673209, “Discovery of a novel potent GPR40 full agonist” (Bioorg Med Chem Lett, 2018).
The source made the active and inactive calls. The rule behind the calls is not given here.

Key:
[1] = molecular target: T1, Free fatty acid receptor 1 (Homo sapiens, UniProt O14842); experiment: Agonist activity at human GPR40 transfected in HEK293 cells assessed as increase in intracellular calcium level incubated for 1 hr by Fluo-8 dye based fluorescence analysis; assay type: functional, cell-based
[2] = molecular target: Free fatty acid receptor 1 (Rattus norvegicus, UniProt Q8K3T4); experiment: Agonist activity at rat GPR40 transfected in HEK293 cells assessed as increase in intracellular calcium level incubated for 1 hr by Fluo-8 dye based fluorescence analysis; assay type: functional, cell-based
Mus musculus [3] = species on record: Mus musculus; experiment: Anti-glycemic activity in C57 mouse assessed as reduction in blood glucose excursion measured for 120 mins by IPGTT; assay type: functional, organism-based
[4] = molecular target: T1, Free fatty acid receptor 1; experiment: Agonist activity at GPR40 in human islets assessed as induction of glucose-stimulated insulin secretion at 10 uM; assay type: tissue-based; conditions: Pancreatic islet
[5] = molecular target: Free fatty acid receptor 1 (Rattus norvegicus) (UniProt Q8K3T4); experiment: Agonist activity at GPR40 in rat INS1 (832/13) cells assessed as induction of glucose-stimulated insulin secretion in presence of 10 mM glucose; assay type: cell-based
Rattus norvegicus [6] = experiment: Anti-glycemic activity in fasted Sprague-Dawley ZDF rat assessed as reduction in post-prandial hyperglycemia by measuring AUC(0 to 2 hrs) for blood glucose at 10 mg/kg administered daily for 8 days and measured on day 8 by OGTT; assay type: functional; conditions: time 8 day
Mus musculus [7] = species on record: Mus musculus; experiment: Anti-glycemic activity in GPR40 knockout mouse assessed as reduction in blood glucose excursion measured for 120 mins by IPGTT; assay type: functional, organism-based
Rattus norvegicus [8] = experiment: Anti-glycemic activity in fasted Sprague-Dawley ZDF rat assessed as reduction in post-prandial hyperglycemia by measuring AUC(0 to 2 hrs) for blood glucose at 10 mg/kg administered for 1 day and measured on day 1 by OGTT; assay type: functional
Rattus norvegicus [9] = experiment: Anti-glycemic activity in fasted Sprague-Dawley ZDF rat assessed as reduction in post-prandial hyperglycemia by measuring AUC(0 to 2 hrs) for blood glucose at 3 mg/kg administered for 1 day and measured on day 1 by OGTT; assay type: functional
Mus musculus [10] = experiment: In vivo agonist activity at GPR40 in C57 mouse assessed as induction of GLP1 secretion at 100 mg/kg; assay type: functional, organism-based
Rattus norvegicus [11] = experiment: Anti-glycemic activity in fasted Sprague-Dawley ZDF rat assessed as reduction in post-prandial hyperglycemia by measuring AUC(0 to 2 hrs) for blood glucose at 3 mg/kg administered daily for 8 days and measured on day 8 by OGTT; assay type: functional; conditions: time 8 day
Mus musculus [12] = experiment: Induction of GLP-1 secretion in GPR40 knock-out mouse at 100 mg/kg; assay type: functional, organism-based
Rattus norvegicus [13] = experiment: Anti-glycemic activity in fasted Sprague-Dawley ZDF rat assessed as increase in insulin secretion by measuring insulin level in plasma at 3 mg/kg administered 30 mins prior to glucose challenge measured after 140 mins by OGTT; assay type: functional; conditions: time 170 min, 2.833 h
Rattus norvegicus [14] = experiment: Anti-glycemic activity in fasted Sprague-Dawley ZDF rat assessed as increase in insulin secretion by measuring insulin level in plasma at 10 mg/kg administered 30 mins prior to glucose challenge measured after 140 mins by OGTT; assay type: functional; conditions: time 170 min, 2.833 h
Mus musculus [15] = experiment: In vivo agonist activity at GPR119 in GPR40 knock-out mouse assessed as induction of GLP-1 secretion at 30 mg/kg; assay type: functional, organism-based
Mus musculus [16] = experiment: In vivo agonist activity at GPR119 in C57 mouse assessed as induction of GLP-1 secretion at 30 mg/kg; assay type: functional, organism-based

Free fatty acid receptor 1 (Rattus norvegicus, UniProt Q8K3T4), sequence (Q8K3T4 whole entry): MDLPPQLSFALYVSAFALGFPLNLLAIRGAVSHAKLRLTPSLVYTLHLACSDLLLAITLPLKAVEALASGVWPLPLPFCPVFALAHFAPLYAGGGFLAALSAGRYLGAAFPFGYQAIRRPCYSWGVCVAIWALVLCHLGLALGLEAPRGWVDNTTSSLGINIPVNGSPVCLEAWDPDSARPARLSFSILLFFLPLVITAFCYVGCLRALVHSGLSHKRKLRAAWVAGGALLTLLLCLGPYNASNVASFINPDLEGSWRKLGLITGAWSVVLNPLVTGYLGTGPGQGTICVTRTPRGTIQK
T1 sequence (O14842 whole entry): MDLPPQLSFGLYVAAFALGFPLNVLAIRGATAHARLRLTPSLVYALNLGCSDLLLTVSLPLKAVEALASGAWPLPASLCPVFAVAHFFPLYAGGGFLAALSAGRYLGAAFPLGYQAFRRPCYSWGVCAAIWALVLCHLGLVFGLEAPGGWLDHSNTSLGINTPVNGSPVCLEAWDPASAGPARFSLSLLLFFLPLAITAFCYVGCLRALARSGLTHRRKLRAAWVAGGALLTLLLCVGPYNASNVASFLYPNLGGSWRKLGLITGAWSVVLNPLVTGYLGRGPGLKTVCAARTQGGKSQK
Free fatty acid receptor 1 (Rattus norvegicus), sequence (Q8K3T4 whole entry): as the sequence (Q8K3T4 whole entry) above

| Compound | EC50 [1] [µM] | EC50 [2] [µM] | also measured |
| --- | --- | --- | --- |
| COc1ccc(F)c(-c2cnc(COc3cccc([C@@H](CC(=O)O)C4CC4)c3)cc2C2=CCCC2(C)C)c1 | 0.011 | 0.046 | – |
| CCCCc1nc(COc2cccc([C@@H](CC(=O)O)C3CC3)c2)cnc1-c1cc(OC)ccc1F | 0.0025 | 0.028 | – |
| COc1ccc(Cl)cc1C(=O)NCCc1ccc(S(=O)(=O)NC(=O)NC2CCCCC2)cc1 | – | – | Activity (Mus musculus [3]): Active |
| COc1ccc(F)c(-c2ccc(COc3cccc([C@@H](CC(=O)O)C4CC4)c3)cc2C2=CCCC2(C)C)c1 | 0.0035 | 0.0114 | Activity ([4]; filed as agonist): Active; Activity ([5]; INS-1 832/13, filed as agonist): Active |
| COc1ccc(F)c(-c2ncc(COc3cccc([C@@H](CC(=O)O)C4CC4)c3)nc2CC(C)(C)C)c1 | – | – | EC50 ([1]; hek293): 0.002 µM |
| COc1ccc(F)c(-c2ncc(COc3cccc([C@@H](CC(=O)O)C4CC4)c3)nc2C2=CCCC2(C)C)c1 | – | 0.201 | – |
| COc1ccc(F)c(-c2ncc(COc3cccc([C@@H](CC(=O)O)C4CC4)c3)nc2C=C(C)C)c1 | 0.0094 | – | – |
| COc1ccc(F)c(-c2cnc(COc3cccc([C@@H](CC(=O)O)C4CC4)c3)nc2C2=CCCC2(C)C)c1 | 0.0124 | 0.0701 | – |
| COc1ccc(F)c(-c2ncc(COc3cccc([C@@H](CC(=O)O)C4CC4)c3)cc2C2=CCCC2(C)C)c1 | 0.0213 | 0.0644 | – |
| COc1ccc(F)c(-c2ncc(COc3cccc([C@@H](CC(=O)O)C4CC4)c3)nc2OCC(C)C)c1 | 0.0096 | – | – |
| COc1ccc(F)c(-c2ccc(COc3cccc([C@@H](CC(=O)O)C4CC4)c3)nc2C2=CCCC2(C)C)c1 | 0.0094 | 0.0447 | – |
| Cc1cc(OCCCS(C)(=O)=O)cc(C)c1-c1cccc(COc2ccc3c(c2)OC[C@H]3CC(=O)O)c1 [FASIGLIFAM] | – | – | Activity (Rattus norvegicus [6]): 135502 ng/mL.hr; Activity (Mus musculus [7]): inactive; Activity (Rattus norvegicus [8]): 59293 ng/mL.hr; Activity [4]: inactive; Activity (Rattus norvegicus [9]): 12194 ng/mL.hr; Activity (Mus musculus [10]): inactive; Activity (Rattus norvegicus [11]): 20561 ng/mL.hr; Activity (Mus musculus [3]): Active; Activity (Mus musculus [12]): inactive; Activity (Rattus norvegicus [13]): 4020 ng/mL; Activity ([5]; INS-1 832/13): inactive; Activity (Rattus norvegicus [14]): 19250 ng/mL |
| CC(C)OC(=O)N1CCC(Oc2ncnc3c2CCN3c2ccc(S(C)(=O)=O)cc2F)CC1 | – | – | Activity (Mus musculus [15]): Active; Activity (Mus musculus [16]): Active |
| COc1ccc(F)c(-c2ncc(COc3cccc([C@@H](CC(=O)O)C4CC4)c3)nc2N2CC3(CCC3)C2)c1 | 0.0045 | – | – |
| COc1ccc(F)c(-c2ncc(COc3cccc([C@@H](CC(=O)O)C4CC4)c3)nc2-c2cc(C)cc(C)c2)c1 | 0.0075 | – | – |
| COc1cc(-c2ncc(COc3cccc([C@@H](CC(=O)O)C4CC4)c3)nc2C2=CCCC2(C)C)c(F)cn1 | 0.011 | – | – |
